Experiments:
Format in all cases: in vivo, human
tau [1] = assay: AD-NL classification from tau PET: ROC AUC and AD-NL ratio of PBP; conditions: for AD-NL ratio R = (average PBP of AD group)/(average PBP of NL group), SUVP / AD-NL ratio R = (average PBP of AD group)/(average PBP of NL group), SUVR: Table 5, region not stated; for AD-NL ratio (R), SUVP PBP / AD-NL ratio (R), SUVR PBP: temporal lobe
Method: In another embodiment, the average PBP of a particular diseased (or abnormal) group (e.g., an AD group) for a particular ROI may be compared to the PBP of a group of normal control (NL) subjects. For example, a ratio (R) of PBP may be obtained by: R=(average PBP of diseased or abnormal group)/(average PBP of NL group)
(§1) Standardized uptake value (SUV) images were obtained by normalizing tissue radioactivity concentration by injected dose and bodyweight. Estimates of tau deposition were determined for THK53151 with the 40-60 min SUV and for AV1451 with for the 80-100 min SUV. Standard SUVR was generated by using cerebellar cortex as reference. To control the variation of SUVR measures in THK5351 and AV1451 PET caused by the off-target binding in reference region, each subject's SUV images were first transferred into standardized SUVP images, using the Peak-alignment method (as described above). In order to compare the regional SUV distribution patterns on group level, the whole brain probability density function (PDFwb) of SUVP were computed for each subject by normalizing the histograms of a subject's SUVP with the total number of intracranial voxels of that subject. Finally, the group average whole brain probability density function (PDFwb) were computed by averaging the individual subjects' PDFwb within 4 compare groups (2 tracers×2 conditions). One important advantage of SUVP over SUVR is that the Peak-alignment method standardized the range of whole brain SUV (marked in FIG. 2) into [−3,3] approximately, regardless of tracer or disease condition, thus allowing universal cutoff for different tracers, while SUVR cutoffs are tracer-dependent (e.g. 1.5 for THK and 1.19 for AV1451). Here, 1.5 is used for SUVP cutoff, representing 1.5 times std from whole brain mode. The positive binding percentage: PBP=(number of positive bring voxels)/(total number of voxels), are computed for both SUVP and SUVR in different brain tissues.
To compare the classification accuracy of AD and NL using mean SUVR and PBP (SUVR and SUVP), the ROC curve was computed and the area under curve (AUC) was computed.
We also computed the diagnostic accuracy in terms of AUC, as specified in Method section. […] The AD-NL ratio obtained using (average PBP of AD group)/(average PBP of NL group).

tau [2] = assay: Tau PET tracer binding, SUVR with cerebellar cortex as reference, AD patients and NL subjects; conditions: mean (SD); for GMSUVR (Cerebral GM tracer retention) / WMSUVR (Cerebral WM tracer retention): all subjects of the tracer (AD and NL)
Method: Subjects come from two sources. 18 subjects (9 AD patients, and 9 healthy elderly study participants) underwent ^18F-THK5351 PET scans from the memory clinic of Tohoku University Hospital. ^18F-AV-1451 scans were obtained from the ADNI (Alzheimer's Disease Neuroimaging Initiative) database (adni.loni.usc.edu). 32 Subjects (20 NL and 12 AD) with ^18F-AV-1451 were selected from ADNI, that were matched to the age and MMSE in participants of the THK5351 group.
PET imaging was performed using an Eminence STARGATE PET scanner (Shimadzu, Kyoto, Japan). After intravenous injection of ^18F-THK5351 (185 MBq), dynamic PET images were obtained for 60 min. acquisition matrix is 128×128×79 and voxels size is 2×2×2.6 mm. ^18F-THK5351 was synthesized. MRI was performed on all participants. T1 weighted MR images were obtained using a SIGNA 1.5-Tesla machine (General Electric, Milwaukee, Wis.). In T1-weighted MRI, a 3D volumetric acquisition of a T1-weighted gradient echo sequence produced a gapless series of thin axial sections by using a vascular TOF SPGR sequence (echo time/repetition time, 2.4/50 ms; flip angle, 45°; acquisition matrix, 256×256; 1 excitation; field of view, 22 cm; slice thickness, 2.0 mm).
AV-1451 data were downloaded from ADNI with series description “AV1451 Coreg, Avg, Std Img and Vox Siz, Uniform Resolution”. An intravenous injection of 10 mCi ^18F-AV-1451 (370 MBq) is followed by a saline flush. At approximately 75 minutes following injection, a continuous 30-minute brain scan (6 frames of 5-minute duration) was performed after a CT or transmission scan for attenuation correction. PET imaging was performed using GEMINI TF TOF 16 (Philips Medical Systems), with 6 frames; acquisition matrix 128×128×90; pixel spacing 2×2 mm; slice thickness 2 mm.
Using Free-Surfer (V. 5.1, http://surfer.nmr.mgh.harvard.edu) ROI's were determined for the cerebral gray and white matter, the cerebellar hemisphere gray matter, caudate nuclear, thalamus, ponds and subcortical regions (including frontal, parietal, occipital, medial temporal cortex and lateral temporal lobe). MRI T1 images were coregistered to the mean PET images for each participant by using statistical parametric-mapping software (SPM12; Wellcome Department of Imaging Neuroscience, UCL, London, UK).
as §1, with “tissues. […]” for “tissues.”

tau [3] = assay: AD-NL classification from tau PET: ROC AUC and AD-NL ratio of PBP; conditions: temporal lobe

SMILES	AD-NL ratio R = (average PBP of AD group)/(average PBP of NL group), SUVP (tau [1])	AD-NL ratio R = (average PBP of AD group)/(average PBP of NL group), SUVR (tau [1])	AD-NL ratio (R), SUVP PBP (tau [1])	AD-NL ratio (R), SUVR PBP (tau [1])	SUVR, Basal ganglia (tau [2]; AD patients)	SUVR, Cerebral GM (tau [2]; AD patients)	SUVR, Cerebral WM (tau [2]; AD patients)	SUVR, Frontal cortex (tau [2]; AD patients)	SUVR, Occipital cortex (tau [2]; AD patients)	SUVR, Parietal cortex (tau [2]; AD patients)	SUVR, Temporal cortex (tau [2]; AD patients)	SUVR, Basal ganglia (tau [2]; NL subjects)	SUVR, Cerebral GM (tau [2]; NL subjects)	SUVR, Cerebral WM (tau [2]; NL subjects)	SUVR, Frontal cortex (tau [2]; NL subjects)	SUVR, Occipital cortex (tau [2]; NL subjects)	SUVR, Parietal cortex (tau [2]; NL subjects)	SUVR, Temporal cortex (tau [2]; NL subjects)	GMSUVR (Cerebral GM tracer retention) (tau [2])	WMSUVR (Cerebral WM tracer retention) (tau [2])	other results
[18F]c1ccc(-c2ccc3c(c2)[nH]c2ccncc23)cn1 [AV-1451]	4.4004	1.3258	3.69	1.3	1.30(.10)	1.24(.25)^+	1.27(.18)	1.18(.23)	1.17(.13)	1.25(.30)	1.41(.35)*^+	1.30(.09)	1.09(.09)	1.18(.09)	1.06(.07)	1.09(.09)	1.07(.10)	1.18(.16)	1.15(0.18)	1.21(0.13)	AD-NL ratio (R), SUVR Mean (tau [3]): 1.17
CNc1ccc(-c2ccc3cc(OC[C@H](O)CF)ccc3n2)cn1 [THK5351]	3.1248	1.2747	2.39	1.25	2.62(.26)^	1.55(.16)^+	1.78(.14)^+	1.38(.18)	1.42(.16)^+	1.46(.12)	1.88(.22)*^+	2.64(.31)	1.39(.20)	1.56(.20)	1.32(.20)	1.22(.13)	1.30(.24)	1.57(.21)	1.47(0.19)	1.67(0.20)	AD-NL ratio (R), SUVR Mean (tau [3]): 1.18
